Assay results taken from ChEMBL document CHEMBL1649426 (J Med Chem, 2011).

Experiments:
[1] = system: Human immunodeficiency virus 1; assay: Antiviral activity against HIV1 LAI infected in human MT2 cells assessed as inhibition of virus-induced cytopathic effect by MTT assay; format: functional, organism-based; conditions: Human immunodeficiency virus 1, LAI
[2] = system: Human immunodeficiency virus 1; assay: Antiviral activity against HIV-1 MDR/G infected in human PHA-PBM cells assessed as inhibition of p24 Gag protein production; format: functional, organism-based; conditions: Human immunodeficiency virus 1, MDR/G, PBMC
[3] = system: Human immunodeficiency virus 1; assay: Antiviral activity against HIV-1 MDR/TM infected in human PHA-PBM cells assessed as inhibition of p24 Gag protein production; format: functional, organism-based; conditions: Human immunodeficiency virus 1, MDR/TM, PBMC
[4] = system: Human immunodeficiency virus 1; assay: Antiviral activity against HIV-1 MDR/B infected in human PHA-PBM cells assessed as inhibition of p24 Gag protein production; format: functional, organism-based; conditions: Human immunodeficiency virus 1, MDR/B, PBMC
[5] = system: Human immunodeficiency virus 1; assay: Antiviral activity against HIV-1 MDR/MM infected in human PHA-PBM cells assessed as inhibition of p24 Gag protein production; format: functional, organism-based; conditions: Human immunodeficiency virus 1, MDR/MM, PBMC
[6] = system: Human immunodeficiency virus 1; assay: Antiviral activity against HIV-1 MDR/JSL infected in human PHA-PBM cells assessed as inhibition of p24 Gag protein production; format: functional, organism-based; conditions: Human immunodeficiency virus 1, MDR/JSL, PBMC
[7] = system: Human immunodeficiency virus 1; assay: Antiviral activity against HIV-1 MDR/C infected in human PHA-PBM cells assessed as inhibition of p24 Gag protein production; format: functional, organism-based; conditions: Human immunodeficiency virus 1, MDR/C, PBMC
[8] = biological target: Protease (Human immunodeficiency virus 1, UniProt Q9YQ12); assay: Inhibition of HIV1 protease; format: single protein
[9] = system: Human immunodeficiency virus 1; assay: Antiviral activity against wild type HIV-1 ERS104 pre infected in human PHA-PBM cells assessed as inhibition of p24 Gag protein production; format: functional, organism-based; conditions: Human immunodeficiency virus 1, ERS104pre, PBMC

Sequence of Protease (Q9YQ12 whole entry): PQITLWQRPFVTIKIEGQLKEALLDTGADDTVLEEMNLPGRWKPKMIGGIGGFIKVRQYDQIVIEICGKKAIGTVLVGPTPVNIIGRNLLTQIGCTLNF

Row | SMILES | IC50 [1] [nM] | Ki [8] [nM] | other results
1 | CC(C)(C)NC(=O)[C@@H]1C[C@@H]2CCCC[C@@H]2CN1C[C@@H](O)[C@H](Cc1ccccc1)NC(=O)[C@H](CC(N)=O)NC(=O)c1ccc2ccccc2n1 | 15 |  | 
2 | CC(C)CN(C[C@@H](O)[C@H](Cc1ccccc1)NC(=O)O[C@H]1CCOC1)S(=O)(=O)c1ccc(N)cc1 | 30 |  | 
3 | COc1ccc(S(=O)(=O)N(CC(C)C)C[C@@H](O)[C@H](Cc2ccccc2)NC(=O)O[C@H]2CCO[C@H]3OCC[C@H]32)cc1 | 0.5 | 0.0027 | EC50 [2]: 2.6 nM; EC50 [3]: 27.5 nM; EC50 [4]: 14.5 nM; EC50 [5]: 5 nM; EC50 [6]: 27.5 nM; EC50 [7]: 3.7 nM; EC50 [9]: 1.9 nM
4 | COc1ccc(S(=O)(=O)N(CC(C)C)C[C@@H](O)[C@H](Cc2ccccc2)NC(=O)O[C@@H]2CCO[C@@H]3OCC[C@@H]32)cc1 | 19 | 0.068 | 
5 | COc1ccc(S(=O)(=O)N(CC(C)C)C[C@@H](O)[C@H](Cc2ccccc2)NC(=O)O[C@H]2CCC[C@H]3OCC[C@@H]23)cc1 | 8 | 0.005 | 
6 | COc1ccc(S(=O)(=O)N(CC(C)C)C[C@@H](O)[C@H](Cc2ccccc2)NC(=O)O[C@H]2CCO[C@H]3CCC[C@H]32)cc1 |  | 1.43 | 
7 | COc1ccc(S(=O)(=O)N(CC(C)C)C[C@@H](O)[C@H](Cc2ccccc2)NC(=O)O[C@H]2CCC[C@H]3CCC[C@H]32)cc1 | > 1000 | 9 | 
8 | COc1ccc(S(=O)(=O)N(CC(C)C)C[C@@H](O)[C@H](Cc2ccccc2)NC(=O)O[C@H]2CCO[C@H]3COC[C@H]32)cc1 | > 1000 | 5.3 | 
9 | COc1ccc(S(=O)(=O)N(CC(C)C)C[C@@H](O)[C@H](Cc2ccccc2)NC(=O)O[C@H]2CO[C@H]3OCC[C@H]3C2)cc1 |  | 0.11 | 
10 | CC(C)CN(C[C@@H](O)[C@H](Cc1ccccc1)NC(=O)O[C@H]1CCO[C@H]2OCC[C@H]21)S(=O)(=O)c1ccc(N)cc1 | 6.5 | 0.01 | 
11 | CC(C)CN(C[C@@H](O)[C@H](Cc1ccccc1)NC(=O)O[C@H]1CCO[C@H]2OCC[C@H]21)S(=O)(=O)c1ccc(CO)cc1 | 4.5 | 0.085 | 
12 | COC(=O)N[C@H](C(=O)N[C@@H](Cc1ccccc1)[C@@H](O)CN(Cc1ccc(-c2ccccn2)cc1)NC(=O)[C@@H](NC(=O)OC)C(C)(C)C)C(C)(C)C [ATAZANAVIR] |  |  | EC50 [2]: 19 nM; EC50 [3]: 75 nM; EC50 [4]: 470 nM; EC50 [5]: 205 nM; EC50 [6]: 293 nM; EC50 [7]: 39 nM; EC50 [9]: 2.7 nM
13 | Cc1cccc(C)c1OCC(=O)N[C@@H](Cc1ccccc1)[C@@H](O)C[C@H](Cc1ccccc1)NC(=O)[C@H](C(C)C)N1CCCNC1=O [LOPINAVIR] |  |  | EC50 [4]: > 1000 nM; EC50 [6]: > 1000 nM
